# Measured values: paper PMC8730469 (Bioorganic & Medicinal Chemistry Letters, 2022)
# Target: T1, SARS-CoV-2 M^pro (Severe acute respiratory syndrome coronavirus 2, UniProt P0DTD1)
# Assay: not given
# Assay type: biochemical
# Conditions: not given
row,SMILES,inhibitory activity (in words)
1,COc1cccc2c(=O)n(CC(=O)Nc3ccccc3)sc12 [Compound 16b-9],decreased the activity drastically
2,O=c1[nH]sc2cc(F)ccc12 [Compound 3a],reduced dramatically
3,Nc1cccc2c(=O)n(CC(=O)Nc3ccccc3)sc12 [Compound 16b-17],decreased the activity drastically
4,O=C(Cn1sc2c(C(F)(F)F)cccc2c1=O)Nc1ccccc1 [Compound 16b-13],decreased the activity drastically
5,O=C(O)Cn1sc2cc(F)ccc2c1=O [Compound 13a],reduced dramatically

# Target: T1, SARS-CoV-2 M^pro
# Assay: fast dilution experiment
# Conditions: Fig. S1 and Table S1
row,SMILES,reversibility of inhibition
1,O=C(Cn1sc2cccc(F)c2c1=O)Nc1ccccc1 [Compound 16b-3],irreversible inhibitor
